Data reported in PubChem BioAssay AID192 (DTP/NCI, 2004).
Values joined by “and” are separate entries in the source; they are usually repeats but may differ in a detail not shown here. Equal values may be shown once. Inconclusive results and toxic doses are left out. The calls were made as follows: active = survival T/C of 150% or more; inactive = T/C below 125% in these data.

Test system: BDF1 mice, B16 melanoma ip, median survival T/C
Experiment: NCI In Vivo Anticancer Drug Screen. Data for tumor model B16 Melanoma (intraperitoneal) in B6D2F1 (BDF1) mice
Conditions: endpoint: median survival time, higher = longer survival
How it was run: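 Vehicle-treated animals serve as the reference (C); treated animals (T) are scored for survival or tumor size after tumor transplantation.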

[1] = dose: 12.5 mg/kg/injection, schedule: Q01DX009 (ip), vehicle: saline with Tween-80
[2] = dose: 25.0 mg/kg/injection, schedule: Q01DX009 (ip), vehicle: saline with Tween-80
[3] = dose: 50.0 mg/kg/injection, schedule: Q01DX009 (ip), vehicle: saline with Tween-80
[4] = dose: 100.0 mg/kg/injection, schedule: Q01DX009 (ip), vehicle: saline with Tween-80
[5] = dose: 6.25 mg/kg/injection, schedule: Q01DX009 (ip), vehicle: saline with Tween-80
[6] = dose: 3.12 mg/kg/injection, schedule: Q01DX009 (ip), vehicle: Klucel (hydroxypropylcellulose) (HPC)
[7] = dose: 6.25 mg/kg/injection, schedule: Q01DX009 (ip), vehicle: Klucel (hydroxypropylcellulose) (HPC)
[8] = dose: 12.5 mg/kg/injection, schedule: Q01DX009 (ip), vehicle: Klucel (hydroxypropylcellulose) (HPC)
[9] = dose: 25.0 mg/kg/injection, schedule: Q01DX009 (ip), vehicle: Klucel (hydroxypropylcellulose) (HPC)
[10] = dose: 50.0 mg/kg/injection, schedule: Q01DX009 (ip), vehicle: Klucel (hydroxypropylcellulose) (HPC)
[11] = dose: 200.0 mg/kg/injection, schedule: Q01DX009 (ip), vehicle: Klucel (hydroxypropylcellulose) (HPC)
[12] = dose: 100.0 mg/kg/injection, schedule: Q01DX009 (ip), vehicle: Klucel (hydroxypropylcellulose) (HPC)
[13] = dose: 0.39 mg/kg/injection, schedule: Q01DX009 (ip), vehicle: Klucel (hydroxypropylcellulose) (HPC)
[14] = dose: 0.78 mg/kg/injection, schedule: Q01DX009 (ip), vehicle: Klucel (hydroxypropylcellulose) (HPC)
[15] = dose: 1.56 mg/kg/injection, schedule: Q01DX009 (ip), vehicle: Klucel (hydroxypropylcellulose) (HPC)

Measured: T/C

Cc1c(Cl)cccc1NC(=O)NCCC(C)C
inactive: [1] 103 % of control | [2] 100 % of control | [3] 96 % of control

Cc1cc(C)c(C(=O)CC(=O)c2cccnc2)c(C)c1
inactive: dose: 100.0 mg/kg/injection, schedule: Q01DX009 (ip), vehicle: saline + Tween-80 + alcohol 98 % of control | dose: 200.0 mg/kg/injection, schedule: Q01DX009 (ip), vehicle: saline + Tween-80 + alcohol 91 % of control

CSCCC(C#N)(CCN(C)C)c1ccccc1 (stereo unspecified)
inactive: [2] 113 % of control | [3] 107 % of control | [4] 111 % of control

CCOC1CCC2C(CCC(/C=C/c3ccc(O)c4ncccc34)N2C)C1 (stereo unspecified)
inactive: [2] 111 % of control

COc1ccccc1N=NC(C#N)C(N)=O (stereo unspecified)
inactive: [5] 91 % of control | [1] 94 % of control | [2] 87 % of control | [3] 112 % of control

CCOC(=O)N(C)C
inactive: dose: 100.0 mg/kg/injection, schedule: Q01DX009 (ip), vehicle: saline 93 % of control | dose: 200.0 mg/kg/injection, schedule: Q01DX009 (ip), vehicle: saline 98 % of control | dose: 400.0 mg/kg/injection, schedule: Q01DX009 (ip), vehicle: saline 94 % of control

O=C(O)CN(CCN(CC(=O)O)CC(=O)O)CCN(CC(=O)O)CC(=O)O
inactive: [6] 94 % of control | [7] 93 % of control and 94 % of control | [8] 102 % of control | [9] 96 % of control | [10] 88 % of control | [11] 92 % of control

N#CC(=C1C=CC(=NO)C=C1)c1ccccc1
inactive: [8] 100 % of control | [10] 112 % of control | [12] 103 % of control

Cn1c(C[N+](C)(C)C)cc2ccccc21
inactive: [2] 97 % of control | [3] 94 % of control | [4] 86 % of control

CC(C)(C)CC(C)(C)c1ccc(O)c(O)c1
inactive: [5] 98 % of control | [1] 90 % of control | [2] 88 % of control and 93 % of control

O=[N+]([O-])c1cc(F)cc([N+](=O)[O-])c1O
inactive: [8] 124 % of control | [9] 103 % of control | [10] 96 % of control

COc1cccc2c1C(=O)c1c(O)c3c(c(O)c1C2=O)C[C@@](O)(C(C)=O)C[C@@H]3OC1CC(N(C)C)C(O)C(C)O1 (stereo partly specified)
inactive: dose: 0.63 mg/kg/injection, schedule: Q01DX001 (ip), vehicle: water 100 % of control | dose: 1.25 mg/kg/injection, schedule: Q01DX001 (ip), vehicle: water 110 % of control and 112 % of control | dose: 2.5 mg/kg/injection, schedule: Q01DX001 (ip), vehicle: water 104 % of control | dose: 3.46 mg/kg/injection, schedule: Q04DX003 (ip), vehicle: water 98 % of control and 122 % of control | dose: 5.76 mg/kg/injection, schedule: Q04DX003 (ip), vehicle: water 106 % of control and 117 % of control | dose: 7.2 mg/kg/injection, schedule: Q01DX001 (ip), vehicle: water 104 % of control and 116 % of control | dose: 9.6 mg/kg/injection, schedule: Q04DX003 (ip), vehicle: water 102 % of control | dose: 12.0 mg/kg/injection, schedule: Q01DX001 (ip), vehicle: water 106 % of control and 121 % of control

O=C1C=CC(=O)c2c(O)c(CO)c(CO)c(O)c21
inactive: [13] 98 % of control | [14] 89 % of control | [15] 87 % of control

COC1=C2CC(C)CC(OC)C(O)C(C)/C=C(\C)C(OC(N)=O)C(OC)/C=C\C=C(/C)C(=O)NC(=C(/C=N/N3CCCCC3)C1=O)C2=O (stereo unspecified)
inactive: dose: 12.5 mg/kg/injection, schedule: Q01DX005 (ip), vehicle: other 101 % of control | dose: 25.0 mg/kg/injection, schedule: Q01DX005 (ip), vehicle: other 98 % of control | dose: 50.0 mg/kg/injection, schedule: Q01DX005 (ip), vehicle: other 97 % of control | dose: 100.0 mg/kg/injection, schedule: Q01DX005 (ip), vehicle: other 88 % of control | dose: 200.0 mg/kg/injection, schedule: Q01DX005 (ip), vehicle: other 97 % of control

Cc1cc(C)c(-c2cc(O)c(C)cc2O)c(C)c1
inactive: [8] 95 % of control | [9] 97 % of control | [10] 97 % of control | [12] 93 % of control | [11] 90 % of control

C=C1C(=O)OC2CC(C)C3(O)CCC(C)(CC(OC(=O)C(C)C)C12)O3 (stereo unspecified)
inactive: [10] 99 % of control | [12] 97 % of control | [11] 98 % of control

Clc1c(Cl)c(CBr)c(Cl)c(CBr)c1Cl
inactive: [15] 100 % of control | [7] 105 % of control | [8] 102 % of control | dose: 12.5 mg/kg/injection, schedule: Q04DX003 (ip), vehicle: saline with Tween-80 86 % of control | [2] 95 % of control | dose: 25.0 mg/kg/injection, schedule: Q04DX003 (ip), vehicle: saline with Tween-80 92 % of control | [3] 97 % of control | [4] 95 % of control

COC1=C2C[C@@H](C)C[C@@H](OC)[C@@H](O)[C@H](C)/C=C(\C)[C@@H](OC(N)=O)[C@H](OC)/C=C\C=C(/C)C(=O)NC(=CC1=O)C2=O
inactive: dose: 0.5 mg/kg/injection, schedule: Q01DX005 (ip), vehicle: other 110 % of control | dose: 0.5 mg/kg/injection, schedule: Q01DX005 (ip), vehicle: saline with Tween-80 112 % of control | dose: 0.5 mg/kg/injection, schedule: Q01DX005 (ip), vehicle: water 112 % of control and 118 % of control | dose: 0.5 mg/kg/injection, schedule: Q01DX009 (ip), vehicle: saline with Tween-80 110 % of control | dose: 1.0 mg/kg/injection, schedule: Q01DX005 (ip), vehicle: saline with Tween-80 118 % of control | dose: 1.0 mg/kg/injection, schedule: Q01DX005 (ip), vehicle: water 119 % of control | dose: 2.0 mg/kg/injection, schedule: Q01DX005 (ip), vehicle: saline with Tween-80 118 % of control

CC1(O)CC2CCC1C2 (stereo unspecified)
inactive: dose: 100.0 mg/kg/injection, schedule: Q04DX003 (ip), vehicle: saline with Tween-80 102 % of control | dose: 200.0 mg/kg/injection, schedule: Q04DX003 (ip), vehicle: saline with Tween-80 102 % of control | dose: 400.0 mg/kg/injection, schedule: Q04DX003 (ip), vehicle: saline with Tween-80 100 % of control

Nc1ccn(C2CC(O)C(CO)O2)c(=O)n1 (stereo unspecified)
inactive: dose: 9.38 mg/kg/injection, schedule: Q01DX009 (ip), vehicle: water 105 % of control | dose: 18.75 mg/kg/injection, schedule: Q01DX009 (ip), vehicle: water 101 % of control | dose: 37.5 mg/kg/injection, schedule: Q01DX009 (ip), vehicle: water 100 % of control | dose: 75.0 mg/kg/injection, schedule: Q01DX009 (ip), vehicle: water 99 % of control | dose: 150.0 mg/kg/injection, schedule: Q01DX009 (ip), vehicle: water 109 % of control

COC(=O)[C@H]1[C@H]2C[C@@H]3c4[nH]c5cc(OC)ccc5c4CCN3C[C@H]2C[C@@H](OC(=O)c2cccc(N(C)C)c2)[C@@H]1OC
inactive: [13] 93 % of control | [14] 91 % of control and 94 % of control | [15] 97 % of control and 116 % of control | [6] 94 % of control

O=Cc1cc([N+](=O)[O-])ccc1Cl
inactive: [3] 95 % of control | [4] 92 % of control

CCCCCCCCCCCCNCCC#N
inactive: [5] 100 % of control | [1] 92 % of control | [2] 91 % of control and 100 % of control | [3] 89 % of control
